ChEMBL document CHEMBL4813909, “Heterocyclic Diamidine DNA Ligands as HOXA9 Transcription Factor Inhibitors: Design, Molecular Evaluation, and Cellular Consequences in a HOXA9-Dependant Leukemia Cell Model” (J Med Chem, 2019)
Activity calls are given as the source filed them. No cut-off for these calls is given here.

Columns and labels:
K562 = test: Anticlonogenic activity in human K562 cells assessed as K562 number at 2.5 uM incubated for 10 days by Methocult-colony forming cell assay relative to control; format: functional; details: time 10 day
[1] = Induction of cell death in mouse MigA9 cells harboring mouse Hoxa9 gene assessed as propidium iodide-positive cells at 15 uM incubated for 24 hrs by propidium iodide staining based flow cytometry (reference value: 9.06 +/- 0.53%); format: functional; details: dose 15 µM; time 24 hrs
[2] = Induction of cell cycle arrest in mouse MigA9 cells harboring mouse Hoxa9 gene assessed as accumulation at sub-G1 phase at 20 uM incubated for 48 hrs by propidium iodide staining based flow cytometry (reference value: 0.76 +/- 0.1%); format: functional
[3] = Induction of spectral signal at wavelength at 1 to 10 uM by circular dichroism method; format: physicochemical; details: dose 1-10 µM
[4] = Drug localization in nucleus of human HT-29 cells at 5 uM incubated for 16 hrs by DiOC6/propidium iodide staining based by fluorescence microscopy; format: ADME, subcellular; details: ht-29, 16 h
[5] = Stability in mouse MigA9 cells assessed as visibility of intrinsic fluorescence measured after 10 days by fluorescence microscopy; format: ADME, cell-based; details: miga9, 240 h, time 10 day
[6] = Cytotoxicity against mouse MigA9 cells harboring mouse Hoxa9 gene incubated for 72 hrs by MTS assay; format: functional, cell-based; details: MigA9, 72 h
[7] = Induction of cell death in mouse MigA9 cells harboring mouse Hoxa9 gene assessed as propidium iodide-positive cells at 20 uM incubated for 24 hrs by propidium iodide staining based flow cytometry (reference value: 9.06 +/- 0.53%); format: functional; details: dose 20 µM; time 24 hrs
[8] = system: HOXA9 DNA binding site [UNDEFINED MUTATION]; test: Binding affinity to DNA Hoxa9-binding site-5'-ATTTA/5'ATGA double mutant (strand a-CTGCGTAGCGTCACGACCGC/strand b-GCGGTCGTGACGCTACGCAG) (unknown origin) by UV/visible spectrophotometric method; format: nucleic-acid assay
HOXA9 DNA binding site [9] = test: Inhibition of HOXA9 (unknown origin) expressed in reticulocyte lysate system binding to 32P-radiolabeled DNA Hoxa9-binding site (strand a-CTGCGATGATTTACGACCGC /strand b-GCGGTCGTAAATCATCGCAG) (unknown origin) assessed as HOXA9/DNA inhibition at 2.5 to 20 uM incubated for 20 mins by electrophoretic mobility shift assay relative to control; format: subcellular; details: dose 2.5-20 µM
[10] = system: HOXA9 DNA binding site [UNDEFINED MUTATION]; test: Binding affinity to DNA Hoxa9-binding site-5'-ATTTA mutant (strand a-CTGCGATGAGTCACGACCGC/strand b-GCGGTCGTGACTCATCGCAG) (unknown origin) by UV/visible spectrophotometric method; format: nucleic-acid assay
HOXA9 DNA binding site [11] = details: dose 1.0 µM
[12] = system: HOXA9 DNA binding site [UNDEFINED MUTATION]
HOXA9 DNA binding site [13] = test: Binding affinity to hairpin DNA Hoxa9-binding site 5'-biotin-CCATGATTTACCTCTGTAAATCATGG (unknown origin) by surface plasmon resonance; format: nucleic-acid assay
HOXA9 DNA binding site [14] = details: dose 0.5 µM
[15] = system: HOXA9 DNA binding site [UNDEFINED MUTATION]; remark: listed apart in the source
MigA9 [16] = test: Downregulation of onecut1 gene in mouse MigA9 cells by ingenuity pathway analysis; format: functional, cell-based
MigA9 [17] = test: Induction of TAC4 gene in mouse MigA9 cells by ingenuity pathway analysis; format: functional, cell-based
MigA9 [18] = test: Downregulation of pim1 gene in mouse MigA9 cells by ingenuity pathway analysis; format: functional, cell-based
[19] = molecular target: Homeobox protein Hox-A9 (Mus musculus) (UniProt P09631); test: Inhibition of HOXA9 in mouse MigA9 cells assessed as induction of gal-leukemic stem cell-dn genes by gene set enrichment analysis; format: cell-based
Homeobox protein Hox-A9 (Mus musculus), sequence (P09631 whole entry, the tested form may be a part): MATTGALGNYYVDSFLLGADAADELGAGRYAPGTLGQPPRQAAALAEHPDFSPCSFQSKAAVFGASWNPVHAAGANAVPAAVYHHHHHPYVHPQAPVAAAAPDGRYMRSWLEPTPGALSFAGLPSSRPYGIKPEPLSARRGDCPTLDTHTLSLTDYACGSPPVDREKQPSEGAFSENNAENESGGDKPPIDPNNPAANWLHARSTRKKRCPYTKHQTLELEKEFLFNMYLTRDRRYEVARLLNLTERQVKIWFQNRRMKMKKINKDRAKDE

MigA9 [20] = test: Upregulation of DICER1 gene in mouse MigA9 cells by ingenuity pathway analysis; format: functional, cell-based
MigA9 [21] = test: Upregulation of E2F1 gene in mouse MigA9 cells by ingenuity pathway analysis; format: functional, cell-based
MigA9 [22] = test: Induction of ITGAM gene in mouse MigA9 cells by ingenuity pathway analysis; format: functional, cell-based
MigA9 [23] = test: Induction of AKAP13 gene in mouse MigA9 cells by ingenuity pathway analysis; format: functional, cell-based
[24] = molecular target: Homeobox protein Hox-A9 (Mus musculus) (UniProt P09631); test: Inhibition of HOXA9 in mouse MigA9 cells assessed as downregulation of wang-immortalised-by-hoxa9-and meis1-up genes by gene set enrichment analysis; format: cell-based
MigA9 [25] = test: Upregulation of KLF3 gene in mouse MigA9 cells by ingenuity pathway analysis; format: functional, cell-based
MigA9 [26] = test: Upregulation of Ncoa6 gene in mouse MigA9 cells by ingenuity pathway analysis; format: functional, cell-based
MigA9 [27] = test: Induction of RGS10 gene in mouse MigA9 cells by ingenuity pathway analysis; format: functional, cell-based
MigA9 [28] = test: Induction of IGLL1/IGLL5 gene in mouse MigA9 cells by ingenuity pathway analysis; format: functional, cell-based
MigA9 [29] = test: Downregulation of FGF7 gene in mouse MigA9 cells by ingenuity pathway analysis; format: functional, cell-based
[30] = molecular target: Homeobox protein Hox-A9 (Mus musculus) (UniProt P09631); test: Inhibition of HOXA9 in mouse MigA9 cells assessed as induction of takeda- targets-of-nup98- hoxa9-fusion-8d-dn genes by gene set enrichment analysis; format: cell-based
MigA9 [31] = test: Downregulation of CD74 gene in mouse MigA9 cells by ingenuity pathway analysis; format: functional, cell-based
MigA9 [32] = test: Upregulation of rgs10 gene in mouse MigA9 cells by ingenuity pathway analysis; format: functional, cell-based
MigA9 [33] = test: Upregulation of ID1 gene in mouse MigA9 cells by ingenuity pathway analysis; format: functional, cell-based
MigA9 [34] = test: Upregulation of timp2 gene in mouse MigA9 cells by ingenuity pathway analysis; format: functional, cell-based
[35] = molecular target: Homeobox protein Hox-A9 (Mus musculus) (UniProt P09631); test: Inhibition of HOXA9 in mouse MigA9 cells assessed as induction of nuytten-ezh2-targets-up genes by gene set enrichment analysis; format: cell-based
[36] = molecular target: Homeobox protein Hox-A9 (Mus musculus) (UniProt P09631); test: Inhibition of HOXA9 in mouse MigA9 cells assessed as downregulation of martens-tretinoin-response-dn genes by gene set enrichment analysis; format: cell-based
MigA9 [37] = test: Induction of CD47 gene in mouse MigA9 cells by ingenuity pathway analysis; format: functional, cell-based
MigA9 [38] = test: Upregulation of CEACAM1 gene in mouse MigA9 cells by ingenuity pathway analysis; format: functional, cell-based
MigA9 [39] = test: Downregulation of CTSG gene in mouse MigA9 cells by ingenuity pathway analysis; format: functional, cell-based
MigA9 [40] = test: Upregulation of tac4 gene in mouse MigA9 cells by ingenuity pathway analysis; format: functional, cell-based
MigA9 [41] = test: Downregulation of KLF2 gene in mouse MigA9 cells by ingenuity pathway analysis; format: functional, cell-based
[42] = molecular target: Homeobox protein Hox-A9 (Mus musculus) (UniProt P09631); test: Inhibition of HOXA9 in mouse MigA9 cells assessed as induction of gabriely-mir21-targets gene by gene set enrichment analysis; format: cell-based
MigA9 [43] = test: Induction of PIM1 gene in mouse MigA9 cells by ingenuity pathway analysis; format: functional, cell-based
MigA9 [44] = test: Downregulation of ARHGEF1 gene in mouse MigA9 cells by ingenuity pathway analysis; format: functional, cell-based
MigA9 [45] = test: Upregulation of DNMT3A gene in mouse MigA9 cells by ingenuity pathway analysis; format: functional, cell-based
MigA9 [46] = test: Induction of TP53 gene in mouse MigA9 cells by ingenuity pathway analysis; format: functional, cell-based
[47] = Induction of cell cycle arrest in mouse MigA9 cells expressing mouse Hoxa9 assessed as accumulation at G0/G1 phase at 0.5 uM incubated for 48 hrs by EdU/propidium iodide staining based flow cytometry (reference value: 48.77 +/- 0.19%); format: functional
[48] = Induction of cell cycle arrest in mouse MigA9 cells expressing mouse Hoxa9 assessed as accumulation at S phase at 1 uM incubated for 48 hrs by EdU/propidium iodide staining based flow cytometry (reference value: 46.68 +/- 0.21%); format: functional
[49] = Induction of cell death in mouse MigA9 cells harboring mouse Hoxa9 gene assessed as propidium iodide-positive cells at 1 uM incubated for 48 hrs by propidium iodide staining based flow cytometry (reference value: 8.75 +/- 0.2%); format: functional
[50] = Induction of cell cycle arrest in mouse MigA9 cells expressing mouse Hoxa9 assessed as accumulation at G2/M phase at 1 uM incubated for 48 hrs by EdU/propidium iodide staining based flow cytometry (reference value: 4.55 +/- 0.16%); format: functional
[51] = Induction of cell death in mouse MigA9 cells harboring mouse Hoxa9 gene assessed as propidium iodide-positive cells at 0.5 uM incubated for 24 hrs by propidium iodide staining based flow cytometry (reference value: 9.06 +/- 0.53%); format: functional
[52] = Induction of cell cycle arrest in mouse MigA9 cells expressing mouse Hoxa9 assessed as accumulation at G0/G1 phase at 1 uM incubated for 48 hrs by EdU/propidium iodide staining based flow cytometry (reference value: 48.77 +/- 0.19%); format: functional
[53] = Induction of cell death in mouse MigA9 cells harboring mouse Hoxa9 gene assessed as propidium iodide-positive cells at 0.5 uM incubated for 48 hrs by propidium iodide staining based flow cytometry (reference value: 8.75 +/- 0.2%); format: functional
[54] = Induction of cell cycle arrest in mouse MigA9 cells harboring mouse Hoxa9 gene assessed as accumulation at sub-G1 phase at 0.5 uM incubated for 48 hrs by propidium iodide staining based flow cytometry (reference value: 0.76 +/- 0.1%); format: functional
[55] = Induction of cell cycle arrest in mouse MigA9 cells expressing mouse Hoxa9 assessed as accumulation at G2/M phase at 0.5 uM incubated for 48 hrs by EdU/propidium iodide staining based flow cytometry (reference value: 4.55 +/- 0.16%); format: functional
[56] = Induction of cell cycle arrest in mouse MigA9 cells harboring mouse Hoxa9 gene assessed as accumulation at sub-G1 phase at 1 uM incubated for 48 hrs by propidium iodide staining based flow cytometry (reference value: 0.76 +/- 0.1%); format: functional
[57] = Induction of cell death in mouse MigA9 cells harboring mouse Hoxa9 gene assessed as propidium iodide-positive cells at 1 uM incubated for 24 hrs by propidium iodide staining based flow cytometry relative to control; format: functional
[58] = Drug localization in nucleus of mouse MigA9 cells at 20 uM incubated for 2 hrs by TO-PRO-3/propidium iodide staining based by fluorescence microscopy; format: ADME, subcellular; details: miga9, 2 h
[59] = Induction of cell cycle arrest in mouse MigA9 cells expressing mouse Hoxa9 assessed as accumulation at S phase at 0.5 uM incubated for 48 hrs by EdU/propidium iodide staining based flow cytometry (reference value: 46.68 +/- 0.21%); format: functional

## N=C(N)c1ccc(-c2ccc(-c3nc4cc(C(=N)N)ccc4o3)o2)cc1
K562
  Activity: 100%
[1]
  Activity: 8.89%
[2]
  Activity: 0.92%
[3]
  Activity: Not Active
[4]
  Drug transport: Active
[5]
  Stabilty: Stable
[6]
  IC50: > 50 µM
[7]
  Activity: 8.38%
[8]
  Activity: inactive
HOXA9 DNA binding site [9]
  inhibition: inactive
[10]
  Activity: inactive

## N=C(N)c1cccc(-c2ccc(-c3nc4cc(C(=N)N)ccc4[nH]3)cc2)c1
K562
  Activity: 100%
[1]
  Activity: 3.87%
HOXA9 DNA binding site [11]
  ΔTm: > 10 °C
[2]
  Activity: 1.65%
[12]
  ΔTm: 4 °C
[6]
  IC50: 14.1 µM
HOXA9 DNA binding site [13]
  Kd: 0.0055 µM
[7]
  Activity: 5.17%
HOXA9 DNA binding site [14]
  ΔTm: 7 °C
[15]
  ΔTm: 4 °C

## N=C(N)c1ccc(-c2ccc(-c3nc4ccc(C(=N)N)cc4[nH]3)s2)cc1
MigA9 [16]
  Activity: Active
K562
  Activity: 100%
MigA9 [17]
  Activity: Active
MigA9 [18]
  Activity: Active
[1]
  Activity: 13.5%
HOXA9 DNA binding site [11]
  ΔTm: > 10 °C
[2]
  Activity: 12%
[19]
  inhibition: Active
MigA9 [20]
  Activity: Active
MigA9 [21]
  Activity: Active
MigA9 [22]
  Activity: Active
MigA9 [23]
  Activity: Active
[24]
  inhibition: Active
MigA9 [25]
  Activity: Active
[12]
  ΔTm: 4 °C
MigA9 [26]
  Activity: Active
MigA9 [27]
  Activity: Active
[4]
  Drug transport: Active
[5]
  Stabilty: Stable
MigA9 [28]
  Activity: Active
[7]
  Activity: 21.07%
MigA9 [29]
  Activity: Active
[30]
  inhibition: Active
MigA9 [31]
  Activity: Active
MigA9 [32]
  Activity: Active
MigA9 [33]
  Activity: Active
MigA9 [34]
  Activity: Active
[35]
  inhibition: Active
[36]
  inhibition: Active
MigA9 [37]
  Activity: Active
MigA9 [38]
  Activity: Active
MigA9 [39]
  Activity: Active
HOXA9 DNA binding site [14]
  ΔTm: 7 °C
MigA9 [40]
  Activity: Active
MigA9 [41]
  Activity: Active
[42]
  inhibition: Active
MigA9 [43]
  Activity: Active
MigA9 [44]
  Activity: Active
[15]
  ΔTm: 4 °C
MigA9 [45]
  Activity: Active
MigA9 [46]
  Activity: Active

## N=C(Nc1ccc(-c2ccc(-c3ccc(NC(=N)c4ccccn4)cc3)[nH]2)cc1)c1ccccn1
[47]
  Activity: 48.44%
[48]
  Activity: 43.51%
[49]
  Activity: 17.6%
[50]
  Activity: 6.34%
[51]
  Activity: 5.19%
[52]
  Activity: 50.15%
[53]
  Activity: 8.01%
[54]
  Activity: 1.23%
[55]
  Activity: 5.5%
[56]
  Activity: 1.04%
[57]
  Activity: 14.43%
[58]
  Drug transport: Active
[59]
  Activity: 46.06%
